{"source": "patent US20070054348A1", "about": "“Methods of screening bifunctional molecules for modulated pharmacokinetic properties” (priority 2005, published 2007)", "key": {"CYP3A4": {"molecular_target": "CYP3A4 (Homo sapiens, UniProt P08684)", "sequence (P08684 whole entry, the tested form may be a part)": "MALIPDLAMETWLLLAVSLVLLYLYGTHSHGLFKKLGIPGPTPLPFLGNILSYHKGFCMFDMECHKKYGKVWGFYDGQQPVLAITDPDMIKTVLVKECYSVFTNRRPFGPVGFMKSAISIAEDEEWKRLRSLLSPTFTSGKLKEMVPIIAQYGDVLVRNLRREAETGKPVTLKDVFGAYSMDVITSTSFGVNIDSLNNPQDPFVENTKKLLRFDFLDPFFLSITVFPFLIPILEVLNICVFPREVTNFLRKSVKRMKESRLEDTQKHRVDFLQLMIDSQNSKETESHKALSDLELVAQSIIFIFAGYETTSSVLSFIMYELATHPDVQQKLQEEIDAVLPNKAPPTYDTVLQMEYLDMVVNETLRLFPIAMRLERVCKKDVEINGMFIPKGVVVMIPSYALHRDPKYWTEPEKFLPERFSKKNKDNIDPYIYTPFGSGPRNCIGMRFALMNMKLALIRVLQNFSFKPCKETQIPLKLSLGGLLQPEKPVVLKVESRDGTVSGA", "method": "Both the curcumin-FK506 and TZDM-SLF bifunctional compounds include a ligand to the pertidyl-prolyl isomerase FKBP. Therefore, FKBP12 was used in the assay as the PMP. A control was also performed with FK506 in the presence and absence of FKBP12.\nThe coding sequence of human FKBP12 was subcloned into a pGEX2t vector. Bacteria transformed with this vector produce a fusion protein between FKBP12 and glutathione S-transferase (GST). FKBP12 is purified by standard methods and the GST tag enzymatically removed. Pure FKBP was flash-frozen, and stored at −80° C. at 10-100 micromolar in HEPES or phosphate buffer pH 7.0.\nThe CYP3A4 compound and the green substrate VIVID® DBOMF (Invitrogen) were used in the assay with the recombinant human FKBP12 (rhFKBP12) and one of the bifunctional compounds. […] Increasing concentrations of the bifunctional compound, curcumin-FK506, were added to this system, either in the presence (open symbols) or absence (closed symbols) of rhFKBP12 at one micromolar.\nHowever, it has never been tested in an in vitro screen. Therefore, rhFKBP12 and FK506 were added to the VIVID assay. The open symbols are FK506+FKBP and the filled symbols are FK506 alone."}, "[1]": {"conditions": "stated as known; cited from earlier work"}, "COS-1 cells": {"tested_on": "COS-1 cells", "assay": "Fluorescence microscopy of cellular distribution in cultured COS-1 cells", "assay_type": "cell-based", "conditions": "FIG. 3", "method": "Cellular and tissue distribution of a bifunctional molecule consisting of a FKBP-binding group was also assessed. Such re-distribution is due to changes in the physicochemical characteristics of the new molecule and also is driven by specific, high-affinity interactions with FKBP. For example, the distribution of TZDM and TZDM-SLF were studied in cultured COS-1 cells (see FIG. 3). The intrinsic fluorescence of TZDM was used was a convenient handle for following drug distribution. […] Thus, sequestering FKBP-binding drugs both reduces accessibility to P450 enzymes and also alters the distribution of the bifunctional compounds."}, "[2]": {"molecular_target": "T1, cytochrome p450 3A4 (CYP3A4) (Homo sapiens, UniProt P08684)", "T1 construct": "purchased Invitrogen", "T1 sequence (P08684 whole entry)": "as the sequence (P08684 whole entry, the tested form may be a part) above", "assay": "Cytochrome P450 susceptibility assay using whole cells (FKBP-expressing CHO cells in the VIVID assay)", "assay_type": "in vitro ADME", "conditions": "FKBP-expressing Chinese hamster ovary cells (CHO) added, FIG. 4", "method": "In addition to using rhFKBP12 or other recombinant proteins, whole cells were also tested using the cytochrome P450 assay platform. […] Unconjugated curcumin (triangle) was used as a negative control."}}, "data": [{"compound": "C=CC[C@@H]1/C=C(\\C)C[C@H](C)C[C@H](OC)[C@H]2O[C@@](O)(C(=O)C(=O)N3CCCC[C@H]3C(=O)O[C@H](/C(C)=C/[C@@H]3CC[C@@H](O)[C@H](OC)C3)[C@H](C)[C@@H](O)CC1=O)[C@H](C)C[C@@H]2OC", "note": "[FK506]", "values": [{"measurement": "protection from metabolism by CYP on binding the protein partner FKBP", "setting": "CYP3A4; human", "value": "protected from P450 metabolism by the presence of the protein partner"}, {"measurement": "protection from degradation in whole animals", "setting": "[1]", "value": "known to be protected from degradation in whole animals"}]}, {"compound": "CN(C)c1ccc(-c2nc3ccc(I)cc3s2)cc1", "note": "[TZDM]", "values": [{"measurement": "cellular distribution by intrinsic fluorescence", "setting": "COS-1 cells", "value": "resides in membranes"}]}, {"compound": "COc1cc(/C=C/C(=O)C(C(=O)/C=C/c2ccc(O)c(OC)c2)c2ccc(NC(=O)OCC[C@@H]3/C=C(\\C)C[C@H](C)C[C@H](OC)[C@H]4O[C@@](O)(C(=O)C(=O)N5CCCC[C@H]5C(=O)OC(/C(C)=C/[C@@H]5CC[C@@H](O)[C@H](OC)C5)[C@H](C)C(O)CC3=O)[C@H](C)C[C@@H]4OC)cc2)ccc1O", "note": "(stereo partly drawn) [curcumin-FK506]", "values": [{"measurement": "fluorescence of the reaction in the presence of rhFKBP12 compared to the reaction lacking rhFKBP12", "setting": "CYP3A4", "value": "higher"}, {"measurement": "protection from P450 metabolism by addition of FKBP-expressing cells", "setting": "[2]", "value": "protected by addition of the FKBP-expressing cells"}]}, {"compound": "COc1cc(/C=C/C(=O)CC(=O)/C=C/c2ccc(O)c(OC)c2)ccc1O", "note": "[curcumin]", "values": [{"measurement": "protection from P450 metabolism by addition of FKBP-expressing cells", "setting": "[2]", "value": "less protected"}]}]}
